# Source: US11584961B2, “Biomarkers for inflammatory skin disease” (Incyte Corporation, priority 2018, dated 2023)
# “And” between values parts separate entries of the source, which are not always exact repeats. Identical values can stand only once. “Also recorded” adds a separate entry of the source.
# How the values were obtained:
# [1] = system: mild to moderate plaque psoriasis; test: Study of topical ruxolitinib (INCB018424) cream in plaque psoriasis, PASI response at day 28 (Example 1); type: in vivo, human; settings: for Classification: therapeutic response at day 28, individual subjects; for % Change in PASI at Day 28: individual subjects
# [2] = system: mild to moderate plaque psoriasis; test: Double-blind, randomized, vehicle controlled dose ranging study of topical ruxolitinib (INCB018424) in plaque psoriasis, PASI response at day 28 and day 84 (Example 4); type: in vivo, human; settings: for Classification: therapeutic response at day 84, individual subjects; for % Change in PASI at Day 28 / % Change in PASI at Day 84: individual subjects
compound,measurement,setting,value
"N#CC[C@H](C1CCCC1)n1cc(-c2ncnc3[nH]ccc23)cn1 [INCB018424, (3R)-3-cyclopentyl-3-[4-(7H-pyrrolo[2,3-d]pyrimidin-4-yl)-1H-pyrazol-1-yl]propanenitrile]",Classification,[1]; 1.0% BID,Responder
same,Classification,[1]; 1.5% BID,Responder; also recorded: Non-Responder
same,Classification,[1]; 1.5% QD,Non-Responder; also recorded: Responder
same,% Change in PASI at Day 28,[1]; topical cream 1.0% BID,−60.0% and −66.7% (2×)
same,% Change in PASI at Day 28,[1]; topical cream 1.5% BID,−85.7% and −40.0% (2×) and −33.3% and −50.0% and −60.0%
same,% Change in PASI at Day 28,[1]; topical cream 1.5% QD,−33.3% and −80.0% and −50.0%
same,Classification,[2]; 0.5% QD,Responder (individuals were classified as responders if they had >=50% improvement in psoriasis area severity index on day 84); also recorded: Non-Responder
same,Classification,[2]; 1.0% QD,Non-Responder; also recorded: Responder (individuals were classified as responders if they had >=50% improvement in psoriasis area severity index on day 84)
same,Classification,[2]; 1.5% QD,Non-Responder; also recorded: Responder (individuals were classified as responders if they had >=50% improvement in psoriasis area severity index on day 84)
same,% Change in PASI at Day 28,[2]; topical cream 0.5% QD,−16.7% (2×) and −23.5% and −51.7% and −12.5% and −27.8%
same,% Change in PASI at Day 84,[2]; topical cream 0.5% QD,−75% and −50% and −23.5% and −66.7% and −12.5% and −45.9%
same,% Change in PASI at Day 28,[2]; topical cream 1.0% QD,−15.3% and 0% and 83.3%
same,% Change in PASI at Day 84,[2]; topical cream 1.0% QD,0% and −66.7% and 77.8%
same,% Change in PASI at Day 28,[2]; topical cream 1.5% QD,−12.6% and −4.7% and −28% and −50% and −32%
same,% Change in PASI at Day 84,[2]; topical cream 1.5% QD,−12.6% and −42.5% and −30% and −84.8% and −64%
